Test results from ChEMBL document CHEMBL4507289, “Data for DCP probe GSM1” (2021).

Assays:
[1] = target: Serine/threonine-protein kinase LATS2 (Homo sapiens) (UniProt Q9NRM7); settings: Compound concentration 1000.0 nM
[2] = target: MAP/microtubule affinity-regulating kinase 4 (Homo sapiens) (UniProt Q96L34); settings: Compound concentration 1000.0 nM
[3] = target: Cyclin-dependent kinase 13 (Homo sapiens) (UniProt Q14004); settings: Compound concentration 1000.0 nM
[4] = target: Tyrosine-protein kinase TXK (Homo sapiens) (UniProt P42681); settings: Compound concentration 1000.0 nM
[5] = system: eIF-2-alpha kinase GCN2 (Homo sapiens), Q9P2K8 [S808G]; settings: Compound concentration 1000.0 nM
[6] = target: Tyrosine-protein kinase ABL2 (Homo sapiens) (UniProt P42684); settings: Compound concentration 1000.0 nM
[7] = target: D(2) dopamine receptor (Homo sapiens) (UniProt P14416); settings: Compound concentration 10.0 uM
[8] = system: Receptor-type tyrosine-protein kinase FLT3 (Homo sapiens), P36888 [UNDEFINED MUTATION]; settings: Compound concentration 1000.0 nM
[9] = target: Serine/threonine-protein kinase PAK 3 (Homo sapiens) (UniProt O75914); settings: Compound concentration 1000.0 nM
[10] = target: Serine/threonine-protein kinase MARK1 (Homo sapiens) (UniProt Q9P0L2); settings: Compound concentration 1000.0 nM
[11] = target: Mitogen-activated protein kinase 10 (Homo sapiens) (UniProt P53779); settings: Compound concentration 1000.0 nM
[12] = target: Receptor-interacting serine/threonine-protein kinase 2 (Homo sapiens) (UniProt O43353); settings: Compound concentration 1000.0 nM
[13] = target: Myotonin-protein kinase (Homo sapiens) (UniProt Q09013); settings: Compound concentration 1000.0 nM
[14] = target: Histamine H1 receptor (Homo sapiens) (UniProt P35367); settings: Compound concentration 10.0 uM
[15] = target: Dual specificity protein kinase CLK2 (Homo sapiens) (UniProt P49760); settings: Compound concentration 1000.0 nM
[16] = target: Serine/threonine-protein kinase pim-1 (Homo sapiens) (UniProt P11309); settings: Compound concentration 1000.0 nM
[17] = target: Wee1-like protein kinase (Homo sapiens) (UniProt P30291); settings: Compound concentration 1000.0 nM
[18] = target: Cyclin-dependent kinase 4 (Homo sapiens) (UniProt P11802); settings: Compound concentration 1000.0 nM
[19] = target: Rho-associated protein kinase 2 (Homo sapiens) (UniProt O75116); settings: Compound concentration 1000.0 nM
[20] = target: Ribosomal protein S6 kinase alpha-4 (Homo sapiens) (UniProt O75676); settings: Compound concentration 1000.0 nM
[21] = target: Serine/threonine-protein kinase DCLK1 (Homo sapiens) (UniProt O15075); settings: Compound concentration 1000.0 nM
[22] = system: Tyrosine-protein kinase ABL1 (Homo sapiens), P00519 [F317L]; settings: Compound concentration 1000.0 nM
[23] = target: Serine/threonine-protein kinase Nek11 (Homo sapiens) (UniProt Q8NG66); settings: Compound concentration 1000.0 nM
[24] = target: RAC-alpha serine/threonine-protein kinase (Homo sapiens) (UniProt P31749); settings: Compound concentration 1000.0 nM
[25] = target: Receptor tyrosine-protein kinase erbB-4 (Homo sapiens) (UniProt Q15303); settings: Compound concentration 1000.0 nM
[26] = system: Receptor-type tyrosine-protein kinase FLT3 (Homo sapiens), P36888 [D835H]; settings: Compound concentration 1000.0 nM
[27] = target: 5-hydroxytryptamine receptor 2B (Homo sapiens) (UniProt P41595); settings: Compound concentration 10.0 uM
[28] = system: Tyrosine-protein kinase ABL1 (Homo sapiens), P00519 [H396P]; settings: Compound concentration 1000.0 nM
[29] = target: Cyclin-dependent kinase-like 5 (Homo sapiens) (UniProt O76039); settings: Compound concentration 1000.0 nM
[30] = target: Serine/threonine-protein kinase MAK (Homo sapiens) (UniProt P20794); settings: Compound concentration 1000.0 nM
[31] = target: Cyclin-dependent kinase 3 (Homo sapiens) (UniProt Q00526); settings: Compound concentration 1000.0 nM
[32] = target: Ephrin type-A receptor 5 (Homo sapiens) (UniProt P54756); settings: Compound concentration 1000.0 nM
[33] = target: Mitogen-activated protein kinase kinase kinase kinase 3 (Homo sapiens) (UniProt Q8IVH8); settings: Compound concentration 1000.0 nM
[34] = target: Phosphatidylinositol 4,5-bisphosphate 3-kinase catalytic subunit alpha isoform (Homo sapiens) (UniProt P42336); settings: Compound concentration 1000.0 nM
Phosphatidylinositol 4,5-bisphosphate 3-kinase catalytic subunit alpha isoform (Homo sapiens), sequence (P42336 whole entry, canonical isoform): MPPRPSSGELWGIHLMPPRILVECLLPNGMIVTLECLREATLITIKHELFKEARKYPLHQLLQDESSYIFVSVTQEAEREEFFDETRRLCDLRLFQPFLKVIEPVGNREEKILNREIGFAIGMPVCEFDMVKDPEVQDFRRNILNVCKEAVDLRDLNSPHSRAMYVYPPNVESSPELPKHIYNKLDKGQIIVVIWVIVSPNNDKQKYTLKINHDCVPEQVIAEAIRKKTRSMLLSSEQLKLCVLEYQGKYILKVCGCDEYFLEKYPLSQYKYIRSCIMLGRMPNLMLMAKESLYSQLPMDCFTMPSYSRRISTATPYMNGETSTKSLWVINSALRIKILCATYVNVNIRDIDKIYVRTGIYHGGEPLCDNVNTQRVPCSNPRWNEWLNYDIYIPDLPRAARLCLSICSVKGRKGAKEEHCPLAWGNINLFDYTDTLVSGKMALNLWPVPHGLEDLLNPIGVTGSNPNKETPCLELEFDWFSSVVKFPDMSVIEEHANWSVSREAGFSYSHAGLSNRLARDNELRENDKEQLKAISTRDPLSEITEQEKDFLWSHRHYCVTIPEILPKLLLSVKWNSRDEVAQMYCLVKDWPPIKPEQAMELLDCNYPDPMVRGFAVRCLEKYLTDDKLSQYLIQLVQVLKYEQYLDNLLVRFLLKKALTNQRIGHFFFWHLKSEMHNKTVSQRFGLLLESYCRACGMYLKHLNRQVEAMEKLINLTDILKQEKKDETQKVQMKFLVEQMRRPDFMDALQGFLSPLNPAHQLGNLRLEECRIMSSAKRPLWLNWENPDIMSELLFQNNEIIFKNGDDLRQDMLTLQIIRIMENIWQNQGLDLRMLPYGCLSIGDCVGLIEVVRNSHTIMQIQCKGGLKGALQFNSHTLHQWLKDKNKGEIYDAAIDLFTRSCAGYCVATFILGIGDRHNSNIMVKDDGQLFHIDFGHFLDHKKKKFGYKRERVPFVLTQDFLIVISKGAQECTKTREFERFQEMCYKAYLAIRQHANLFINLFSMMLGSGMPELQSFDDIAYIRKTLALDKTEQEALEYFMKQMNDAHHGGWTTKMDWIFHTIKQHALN

[35] = target: Casein kinase I isoform gamma-1 (Homo sapiens) (UniProt Q9HCP0); settings: Compound concentration 1000.0 nM
[36] = target: Mitogen-activated protein kinase kinase kinase 6 (Homo sapiens) (UniProt O95382); settings: Compound concentration 1000.0 nM
Mitogen-activated protein kinase kinase kinase 6 (Homo sapiens), sequence (O95382 whole entry): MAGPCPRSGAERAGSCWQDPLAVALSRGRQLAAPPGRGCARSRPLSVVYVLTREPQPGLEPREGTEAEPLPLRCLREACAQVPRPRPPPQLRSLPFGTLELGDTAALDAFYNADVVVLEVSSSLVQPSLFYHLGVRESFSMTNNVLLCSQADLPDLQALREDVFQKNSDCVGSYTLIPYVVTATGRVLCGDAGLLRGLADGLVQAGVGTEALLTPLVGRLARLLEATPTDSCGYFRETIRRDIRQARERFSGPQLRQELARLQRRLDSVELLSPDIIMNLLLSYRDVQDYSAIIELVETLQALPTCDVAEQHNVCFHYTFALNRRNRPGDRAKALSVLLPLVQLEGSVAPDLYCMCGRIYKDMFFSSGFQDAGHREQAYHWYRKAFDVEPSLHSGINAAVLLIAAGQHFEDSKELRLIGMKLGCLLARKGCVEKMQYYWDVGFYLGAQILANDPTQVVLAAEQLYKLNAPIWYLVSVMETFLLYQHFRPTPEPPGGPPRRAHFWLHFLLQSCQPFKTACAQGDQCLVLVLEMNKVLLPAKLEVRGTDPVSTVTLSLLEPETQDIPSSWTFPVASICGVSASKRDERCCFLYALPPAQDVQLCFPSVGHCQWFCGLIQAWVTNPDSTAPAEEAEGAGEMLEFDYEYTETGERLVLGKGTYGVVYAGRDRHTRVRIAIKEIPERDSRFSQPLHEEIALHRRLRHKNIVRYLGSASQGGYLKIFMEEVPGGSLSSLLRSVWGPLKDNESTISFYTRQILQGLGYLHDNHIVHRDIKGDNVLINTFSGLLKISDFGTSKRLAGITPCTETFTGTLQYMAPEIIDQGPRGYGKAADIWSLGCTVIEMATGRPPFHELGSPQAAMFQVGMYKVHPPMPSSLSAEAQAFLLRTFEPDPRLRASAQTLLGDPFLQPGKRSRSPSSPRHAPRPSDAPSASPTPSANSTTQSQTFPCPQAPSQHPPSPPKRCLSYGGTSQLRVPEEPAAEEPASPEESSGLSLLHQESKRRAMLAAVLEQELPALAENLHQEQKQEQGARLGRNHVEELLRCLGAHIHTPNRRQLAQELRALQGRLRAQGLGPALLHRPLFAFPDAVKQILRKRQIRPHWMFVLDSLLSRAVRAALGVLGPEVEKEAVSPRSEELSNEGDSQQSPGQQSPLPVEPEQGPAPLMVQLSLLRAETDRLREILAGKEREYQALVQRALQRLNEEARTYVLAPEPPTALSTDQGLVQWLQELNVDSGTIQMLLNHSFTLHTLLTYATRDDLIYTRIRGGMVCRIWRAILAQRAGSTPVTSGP

[37] = target: Ephrin type-A receptor 6 (Homo sapiens) (UniProt Q9UF33); settings: Compound concentration 1000.0 nM
[38] = target: Macrophage colony-stimulating factor 1 receptor (Homo sapiens) (UniProt P07333); settings: Compound concentration 1000.0 nM
Macrophage colony-stimulating factor 1 receptor (Homo sapiens), sequence (P07333 whole entry): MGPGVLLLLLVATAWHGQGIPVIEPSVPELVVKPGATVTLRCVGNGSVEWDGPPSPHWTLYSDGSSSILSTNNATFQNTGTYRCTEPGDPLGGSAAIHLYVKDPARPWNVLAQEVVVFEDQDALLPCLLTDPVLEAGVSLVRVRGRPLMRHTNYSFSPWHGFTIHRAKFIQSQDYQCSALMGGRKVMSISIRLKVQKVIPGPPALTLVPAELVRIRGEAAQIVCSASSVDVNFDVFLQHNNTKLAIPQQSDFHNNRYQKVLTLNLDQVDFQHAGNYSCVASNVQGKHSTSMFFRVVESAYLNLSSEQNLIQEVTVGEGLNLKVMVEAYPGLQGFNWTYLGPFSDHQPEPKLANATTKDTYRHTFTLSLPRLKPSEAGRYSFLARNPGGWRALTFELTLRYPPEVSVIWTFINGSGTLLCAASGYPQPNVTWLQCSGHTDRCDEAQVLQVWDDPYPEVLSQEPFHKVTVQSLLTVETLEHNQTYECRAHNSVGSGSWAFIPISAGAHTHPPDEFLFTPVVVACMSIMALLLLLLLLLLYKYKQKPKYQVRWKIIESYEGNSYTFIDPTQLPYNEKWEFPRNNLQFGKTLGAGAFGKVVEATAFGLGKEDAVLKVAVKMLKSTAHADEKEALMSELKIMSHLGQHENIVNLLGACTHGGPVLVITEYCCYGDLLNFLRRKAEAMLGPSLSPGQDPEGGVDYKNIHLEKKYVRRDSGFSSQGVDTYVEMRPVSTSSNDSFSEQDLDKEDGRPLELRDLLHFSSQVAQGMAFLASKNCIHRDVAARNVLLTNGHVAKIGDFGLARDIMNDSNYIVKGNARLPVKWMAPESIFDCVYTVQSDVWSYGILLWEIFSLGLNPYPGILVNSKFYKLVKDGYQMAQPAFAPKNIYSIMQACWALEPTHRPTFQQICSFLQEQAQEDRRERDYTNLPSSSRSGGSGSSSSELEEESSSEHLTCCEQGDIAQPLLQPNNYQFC

[39] = system: Mast/stem cell growth factor receptor Kit (Homo sapiens), P10721 [V559D,T670I]; settings: Compound concentration 1000.0 nM
[40] = system: Tyrosine-protein kinase ABL1 (Homo sapiens), P00519 [F317I]; settings: Compound concentration 1000.0 nM
[41] = target: 5'-AMP-activated protein kinase catalytic subunit alpha-2 (Homo sapiens) (UniProt P54646); settings: Compound concentration 1000.0 nM
5'-AMP-activated protein kinase catalytic subunit alpha-2 (Homo sapiens), sequence (P54646 whole entry, looked up): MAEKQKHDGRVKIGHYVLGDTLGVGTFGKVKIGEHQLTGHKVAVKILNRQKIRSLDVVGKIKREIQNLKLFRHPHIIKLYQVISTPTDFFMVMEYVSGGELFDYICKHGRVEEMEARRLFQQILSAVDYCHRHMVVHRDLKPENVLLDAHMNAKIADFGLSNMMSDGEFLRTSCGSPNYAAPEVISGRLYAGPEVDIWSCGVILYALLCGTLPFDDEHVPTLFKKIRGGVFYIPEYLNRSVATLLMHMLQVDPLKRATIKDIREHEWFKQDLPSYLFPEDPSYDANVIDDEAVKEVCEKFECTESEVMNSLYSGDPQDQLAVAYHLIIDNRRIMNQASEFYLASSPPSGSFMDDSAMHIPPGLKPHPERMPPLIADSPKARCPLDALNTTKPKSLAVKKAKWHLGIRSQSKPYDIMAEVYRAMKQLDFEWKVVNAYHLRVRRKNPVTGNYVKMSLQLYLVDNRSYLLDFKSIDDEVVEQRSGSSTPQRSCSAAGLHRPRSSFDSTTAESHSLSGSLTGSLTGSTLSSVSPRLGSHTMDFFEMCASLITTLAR

[42] = target: Histamine H3 receptor (Homo sapiens) (UniProt Q9Y5N1); settings: Compound concentration 10.0 uM
[43] = system: Tyrosine-protein kinase ABL1 (Homo sapiens), P00519 [E255K]; settings: Compound concentration 1000.0 nM
[44] = target: Tyrosine-protein kinase Fer (Homo sapiens) (UniProt P16591); settings: Compound concentration 1000.0 nM
[45] = target: Serine/threonine-protein kinase 35 (Homo sapiens) (UniProt Q8TDR2); settings: Compound concentration 1000.0 nM

Serine/threonine-protein kinase LATS2 (Homo sapiens), sequence (Q9NRM7 whole entry): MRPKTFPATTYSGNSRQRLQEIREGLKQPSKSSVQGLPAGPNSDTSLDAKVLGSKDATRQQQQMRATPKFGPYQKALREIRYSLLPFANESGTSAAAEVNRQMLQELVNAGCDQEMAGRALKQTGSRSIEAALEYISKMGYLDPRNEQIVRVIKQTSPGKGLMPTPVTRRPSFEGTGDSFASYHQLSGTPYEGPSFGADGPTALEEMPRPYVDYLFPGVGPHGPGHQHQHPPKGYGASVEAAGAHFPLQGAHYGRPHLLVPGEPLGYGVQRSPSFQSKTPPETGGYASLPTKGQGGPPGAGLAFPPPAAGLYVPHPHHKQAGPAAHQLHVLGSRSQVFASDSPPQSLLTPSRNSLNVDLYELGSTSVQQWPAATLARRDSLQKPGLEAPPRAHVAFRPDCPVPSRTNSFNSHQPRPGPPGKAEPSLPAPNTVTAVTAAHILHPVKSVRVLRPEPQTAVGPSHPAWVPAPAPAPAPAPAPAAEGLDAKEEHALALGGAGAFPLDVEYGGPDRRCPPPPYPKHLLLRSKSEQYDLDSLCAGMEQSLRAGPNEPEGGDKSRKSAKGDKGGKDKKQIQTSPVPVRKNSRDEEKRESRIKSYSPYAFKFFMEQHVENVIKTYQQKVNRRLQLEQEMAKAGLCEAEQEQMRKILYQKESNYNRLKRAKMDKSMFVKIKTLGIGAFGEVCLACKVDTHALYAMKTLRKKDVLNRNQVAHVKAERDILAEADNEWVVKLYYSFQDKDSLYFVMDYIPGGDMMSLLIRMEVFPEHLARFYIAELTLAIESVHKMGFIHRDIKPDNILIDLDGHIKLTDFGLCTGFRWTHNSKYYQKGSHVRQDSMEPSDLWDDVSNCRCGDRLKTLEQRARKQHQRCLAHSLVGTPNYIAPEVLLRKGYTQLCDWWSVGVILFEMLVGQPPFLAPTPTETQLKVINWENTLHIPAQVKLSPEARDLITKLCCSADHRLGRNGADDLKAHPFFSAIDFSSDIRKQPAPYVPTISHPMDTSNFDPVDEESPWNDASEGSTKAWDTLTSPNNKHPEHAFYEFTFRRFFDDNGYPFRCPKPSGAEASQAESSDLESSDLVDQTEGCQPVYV

COc1cc(-c2cn([C@H]3CCc4c(F)cccc4N(CC(F)(F)F)C3=O)nn2)ccc1-n1cnc(C)c1
inactive: residual activity [1] 100% | residual activity [2] 100% | residual activity [3] 99% | residual activity [4] 100% | residual activity [5] 100% | residual activity [6] 100% | inhibition [7] 31.2% | residual activity [8] 100% | residual activity [9] 100% | residual activity [10] 100% | residual activity [11] 72% | residual activity [12] 100% | residual activity [13] 99% | inhibition [14] 7.55% | residual activity [15] 100% | residual activity [16] 96% | residual activity [17] 79% | residual activity [18] 100% | residual activity [19] 100% | residual activity [20] 100% | residual activity [21] 100% | residual activity [22] 85% | residual activity [23] 100% | residual activity [24] 96% | residual activity [25] 100% | residual activity [26] 98% | inhibition [27] 5.58% | residual activity [28] 100% | residual activity [29] 91% | residual activity [30] 100% | residual activity [31] 100% | residual activity [32] 100% | residual activity [33] 100% | residual activity [34] 94% | residual activity [35] 86% | residual activity [36] 98% | residual activity [37] 100% | residual activity [38] 86% | residual activity [39] 94% | residual activity [40] 79% | residual activity [41] 100% | inhibition [42] 23.3% | residual activity [43] 100% | residual activity [44] 100% | residual activity [45] 100%

COc1cc(-c2cn([C@H]3CCc4ccccc4N(CC(F)(F)F)C3=O)nn2)ccc1-n1ccc(C)n1
inactive: residual activity [1] 69% | residual activity [2] 100% | residual activity [3] 100% | residual activity [4] 84% | residual activity [5] 100% | residual activity [6] 100% | inhibition [7] 7.85% | residual activity [8] 98% | residual activity [9] 100% | residual activity [10] 99% | residual activity [11] 61% | residual activity [12] 93% | residual activity [13] 96% | inhibition [14] 9.72% | residual activity [15] 100% | residual activity [16] 100% | residual activity [17] 100% | residual activity [18] 86% | residual activity [19] 100% | residual activity [20] 78% | residual activity [21] 100% | residual activity [22] 64% | residual activity [23] 99% | residual activity [24] 97% | residual activity [25] 100% | residual activity [26] 100% | inhibition [27] 6.39% | residual activity [28] 70% | residual activity [29] 87% | residual activity [30] 99% | residual activity [31] 100% | residual activity [32] 100% | residual activity [33] 100% | residual activity [34] 69% | residual activity [35] 77% | residual activity [36] 53% | residual activity [37] 98% | residual activity [38] 92% | residual activity [39] 92% | residual activity [40] 65% | residual activity [41] 71% | inhibition [42] 20.9% | residual activity [43] 96% | residual activity [44] 100% | residual activity [45] 100%
